Earlier results in patent publication US12473247B2, “Encoded design integrated synthesis of nucleic acids, and phospholipids, and related pharmaceutical products” (priority 2023, dated 2025).

Legend:
[1] = ratio relative to cortisol = 1; pharmacological potency of corticosteroids

c1ccc2c(c1)ccc1c3ccccc3ccc21 [chrysene]
solubility in aqueous: insoluble

C[C@]12CCC(=O)C=C1CC[C@@H]1[C@@H]2[C@@H](O)C[C@@]2(C)[C@H]1CC[C@]2(O)C(=O)CO [cortisol]
relative activity of dexamethasone:prednisolone:cortisol [1]: ~1

C[C@]12C=CC(=O)C=C1CC[C@@H]1[C@@H]2[C@@H](O)C[C@@]2(C)[C@H]1CC[C@]2(O)C(=O)CO [prednisolone]
relative activity of dexamethasone:prednisolone:cortisol [1]: ~4
